Assay results published in patent publication US20250206714A1, “COMPOSITIONS AND METHODS FOR TREATMENT OF INFLAMMATORY DISEASES” (Invea Therapeutics, Inc., priority 2022, published 2025).

Assays:
CYP 2C19 = molecular target: T1, CYP 2C19 (Homo sapiens, UniProt P33261); test: Metabolic stability in human liver microsomes with CYP 2C19 inhibitor Nootkatone; assay type: in vitro ADME; settings: 1 μM + Nootkatone (20 μM)
T1 construct: The experiment was conducted in human liver microsomes; from tissue; host or cells: human liver microsomes
T1 sequence (P33261 whole entry): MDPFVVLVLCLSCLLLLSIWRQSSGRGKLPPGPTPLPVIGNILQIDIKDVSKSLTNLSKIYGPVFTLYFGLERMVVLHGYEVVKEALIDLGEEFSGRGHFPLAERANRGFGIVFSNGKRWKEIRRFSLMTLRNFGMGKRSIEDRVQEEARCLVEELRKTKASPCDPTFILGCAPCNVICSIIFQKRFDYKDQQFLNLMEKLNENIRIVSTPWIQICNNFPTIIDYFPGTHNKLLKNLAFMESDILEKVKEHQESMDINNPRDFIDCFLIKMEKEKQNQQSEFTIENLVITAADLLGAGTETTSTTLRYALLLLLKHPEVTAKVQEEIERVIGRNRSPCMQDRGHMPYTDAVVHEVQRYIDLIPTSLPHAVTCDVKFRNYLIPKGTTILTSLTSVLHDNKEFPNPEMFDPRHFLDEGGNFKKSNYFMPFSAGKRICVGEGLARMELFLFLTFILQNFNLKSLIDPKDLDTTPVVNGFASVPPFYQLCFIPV

[1] = Solubility analysis (kinetic method, PBS pH 7.4); assay type: physicochemical; settings: phosphate buffered saline, aqueous buffer, kinetic from dmso stock, phosphate buffer saline (pH-7.4)
Experimental: Seven level calibration standards (i.e., 1, 5, 10, 50, 100, 200 and 300 μM) of the test compound were prepared from 20 mM primary stock solution in DMSO. An aliquot of 198 μL of PBS (pH-7.4) was dispensed into duplicate wells of a multiscreen solubility filter plate. Subsequently, 2 μL of test compound solution from 20 mM primary stock solution was added to give a final concentration of 200 μM, the plate was covered and shaken at 150 rotations per minute for 90 minutes. At the end of 90 minutes, samples were filtered using MultiScreen HTS vacuum Manifold assembly and the filtrates were collected into the acceptor plate. An aliquot of 150 μL of filtrate from the above 96-well acceptor plate were transferred into HPLC vials and analyzed by HPLC-PDA. Solubility was determined by comparing the absorbance of test/reference compound against the respective DMSO calibration curve.

CYP 3A4 = CYP 3A4 (Homo sapiens, UniProt P08684); test: Metabolic stability in human liver microsomes with CYP 3A4 inhibitor Ketoconazole; settings: 1 μM + Ketoconazole (20 μM)
CYP 3A4, sequence (P08684 whole entry): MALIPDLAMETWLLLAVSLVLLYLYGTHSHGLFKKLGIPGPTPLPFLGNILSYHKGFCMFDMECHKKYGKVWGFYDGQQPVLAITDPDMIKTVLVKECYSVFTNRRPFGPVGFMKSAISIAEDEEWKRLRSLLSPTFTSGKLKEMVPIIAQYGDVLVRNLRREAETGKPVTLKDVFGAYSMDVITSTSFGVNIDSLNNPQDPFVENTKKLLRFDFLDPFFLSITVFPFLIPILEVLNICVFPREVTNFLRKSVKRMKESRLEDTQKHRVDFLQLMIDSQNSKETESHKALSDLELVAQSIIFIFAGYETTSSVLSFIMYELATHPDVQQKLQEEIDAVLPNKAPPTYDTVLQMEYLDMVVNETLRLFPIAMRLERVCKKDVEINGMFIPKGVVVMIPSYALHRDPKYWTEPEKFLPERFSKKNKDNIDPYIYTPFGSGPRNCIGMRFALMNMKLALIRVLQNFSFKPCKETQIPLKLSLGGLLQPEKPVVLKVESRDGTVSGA

IL-1β = test: In vitro inhibition of production of IL-1β in PMA-differentiated THP-1 cells (LPS + ATP, ELISA); assay type: cell-based, Human; settings: THP-1 derived macrophages
Experimental: The procedures detailed here can be utilized for testing all compounds of the disclosure.
(§1) Human monocytic THP-1 cells were treated with phorbol 12-myristate 13 acetate (PMA) (100 nM) overnight to differentiate monocytic cells into macrophages. Then, after 24 hours of rest, the differentiated cells were incubated with test compounds for 12 hours at concentrations 0.01, 0.1, 1, 10, 30, and 50 μM. Cells were then washed once with PBS and primed with E. coli LPS (0.1 μg/ml) for 4 h followed by stimulation with ATP (5 μM) for an additional 30 min. The cell culture supernatants were then collected and OD values for IL-1β levels were measured by ELISA. The standard curve (OD VS concentration) for IL-1β was also plotted and used to determine the IL-1β concentration for the OD values. The percentage of inhibition of IL-1β was calculated using the formula: […]
(§2) The percentage IL-1β inhibition at different compound concentrations were plotted in a sigmoid curve and IC50 values were interpolated in Graphpad Prism. Cell death was evaluated by propidium iodide staining and OD was measured at 490 nm. Cell viability was estimated with respect to DMSO control.

THP-1 cells = test: Cell viability by propidium iodide staining; assay type: cell-based; settings: at 10 μM; with respect to DMSO control
Experimental: as §1, §2

In the case of O=C1Nc2ccccc2N(C(=O)CCl)c2ccc(F)cc21 [Compound 6, 5-(2-chloroacetyl)-2-fluoro-5,10-dihydro-11H-dibenzo[b,e][1,4]diazepin-11-one], the “% rem @ 5 min” value (CYP 2C19) is reported as ~100%, the “% rem @ 15 min” value (CYP 2C19) is reported as 98.6% and the “% rem @ 30 min” value (CYP 2C19) is reported as 84.6%. For the same molecule, the “% rem @ 45 min” value (CYP 2C19) was 58.7%, the half-life at 1 µM (CYP 2C19; pH 7.4, with Nootkatone 20 μM) was 54.6 min and the microsomal CLint at 1 μM (CYP 2C19; pH 7.4, with Nootkatone 20 μM, read-out: mCLint) was 25.4 µL/min/mg. The solubility at 90 min [1] was > 200 µM, the “% rem @ 5 min” value (CYP 3A4) was 81.9% and the “% rem @ 15 min” value (CYP 3A4) was 81.5%. For the same molecule, the “% rem @ 30 min” value (CYP 3A4) was 61.8%, the “% rem @ 45 min” value (CYP 3A4) was 52.9% and the “IL-1β levels under in vitro conditions (FIG. 3, percentage of cytokine inhibition against concentration)” value (IL-1β) was “dose dependent decrease in IL-1β levels”. It also gave a cell viability (THP-1 cells) of 99%.
